Test results as given in PubChem BioAssay (NCI).
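Cultured in 96-well plates, cells were exposed to test compound for 48 hours across five concentrations. At the TGI there is no net growth.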

What was measured:
Experiment in all cases: NCI tumour cell line growth inhibition, 48 h
HL-60(TB) leukemia = system: HL-60(TB) leukemia
HOP-18 NSCLC = system: HOP-18 NSCLC
IGROV1 ovarian = system: IGROV1 ovarian
SN12C renal = system: SN12C renal
SF-295 CNS = system: SF-295 CNS
NCI-H226 lung = system: NCI-H226 lung
SK-MEL-5 melanoma = system: SK-MEL-5 melanoma
SF-539 CNS = system: SF-539 CNS
RXF 393 renal = system: RXF 393 renal
SK-MEL-2 melanoma = system: SK-MEL-2 melanoma
KM12 colon = system: KM12 colon
NCI-H460 lung = system: NCI-H460 lung
CCRF-CEM leukemia = system: CCRF-CEM leukemia
UACC-257 melanoma = system: UACC-257 melanoma
P388/ADR leukemia = system: P388/ADR leukemia
SN12K1 renal = system: SN12K1 renal
K-562 leukemia = system: K-562 leukemia
UACC-62 melanoma = system: UACC-62 melanoma
HOP-62 NSCLC = system: HOP-62 NSCLC
OVCAR-5 ovarian = system: OVCAR-5 ovarian
SNB-78 CNS = system: SNB-78 CNS
OVCAR-8 ovarian = system: OVCAR-8 ovarian
NCI-H522 lung = system: NCI-H522 lung
OVCAR-4 ovarian = system: OVCAR-4 ovarian
HOP-92 NSCLC = system: HOP-92 NSCLC
NCI/ADR-RES ovarian = system: NCI/ADR-RES ovarian
A549 NSCLC = system: A549 NSCLC
SK-OV-3 ovarian = system: SK-OV-3 ovarian
A498 renal = system: A498 renal
P388 leukemia = system: P388 leukemia
HCC-2998 colon = system: HCC-2998 colon
HCT-116 colon = system: HCT-116 colon
DMS 273 small cell lung = system: DMS 273 small cell lung
XF 498 CNS = system: XF 498 CNS
M19-MEL melanoma = system: M19-MEL melanoma
MOLT-4 leukemia = system: MOLT-4 leukemia
OVCAR-3 ovarian = system: OVCAR-3 ovarian
HT29 colon = system: HT29 colon
U251 CNS = system: U251 CNS
MCF7 breast = system: MCF7 breast
RPMI-8226 leukemia = system: RPMI-8226 leukemia
COLO 205 colon = system: COLO 205 colon
DLD-1 colon = system: DLD-1 colon
KM20L2 colon = system: KM20L2 colon
SF-268 CNS = system: SF-268 CNS
EKVX NSCLC = system: EKVX NSCLC
HCT-15 colon = system: HCT-15 colon
CAKI-1 renal = system: CAKI-1 renal
MALME-3M melanoma = system: MALME-3M melanoma
SNB-19 CNS = system: SNB-19 CNS
UO-31 renal = system: UO-31 renal
SNB-75 CNS = system: SNB-75 CNS
LOX IMVI melanoma = system: LOX IMVI melanoma
SW-620 colon = system: SW-620 colon
SK-MEL-28 melanoma = system: SK-MEL-28 melanoma
NCI-H23 lung = system: NCI-H23 lung
DMS 114 small cell lung = system: DMS 114 small cell lung

CC1(C)S[C@@H]2[C@H](NC(=O)CCC[C@@H](N)C(=O)O)C(=O)N2[C@H]1C(=O)O
TGI (HL-60(TB) leukemia): > 50 µM
TGI (HOP-18 NSCLC): > 50 µM
TGI (IGROV1 ovarian): > 50 µM
TGI (SN12C renal): > 50 µM
TGI (SF-295 CNS): > 50 µM
TGI (NCI-H226 lung): > 50 µM
TGI (SK-MEL-5 melanoma): > 21.6 µM
TGI (SF-539 CNS): > 50 µM
TGI (RXF 393 renal): > 50 µM
TGI (SK-MEL-2 melanoma): > 50 µM
TGI (KM12 colon): > 50 µM
TGI (NCI-H460 lung): > 50 µM
TGI (CCRF-CEM leukemia): > 50 µM
TGI (UACC-257 melanoma): > 50 µM
TGI (P388/ADR leukemia): > 50 µM
TGI (SN12K1 renal): > 50 µM
TGI (K-562 leukemia): > 50 µM
TGI (UACC-62 melanoma): > 50 µM
TGI (HOP-62 NSCLC): > 50 µM
TGI (OVCAR-5 ovarian): > 28.1 µM
TGI (SNB-78 CNS): > 50 µM
TGI (OVCAR-8 ovarian): > 19.9 µM
TGI (NCI-H522 lung): > 50 µM
TGI (OVCAR-4 ovarian): > 50 µM
TGI (HOP-92 NSCLC): > 50 µM
TGI (NCI/ADR-RES ovarian): > 31.6 µM
TGI (A549 NSCLC): > 50 µM
TGI (SK-OV-3 ovarian): 49.9 µM
TGI (A498 renal): > 50 µM
TGI (P388 leukemia): > 50 µM
TGI (HCC-2998 colon): > 50 µM
TGI (HCT-116 colon): > 50 µM
TGI (DMS 273 small cell lung): > 50 µM
TGI (XF 498 CNS): > 42 µM
TGI (M19-MEL melanoma): > 50 µM
TGI (MOLT-4 leukemia): > 50 µM
TGI (OVCAR-3 ovarian): > 50 µM
TGI (HT29 colon): > 50 µM
TGI (U251 CNS): > 28.4 µM
TGI (MCF7 breast): > 50 µM
TGI (RPMI-8226 leukemia): > 50 µM
TGI (COLO 205 colon): > 50 µM
TGI (DLD-1 colon): > 50 µM
TGI (KM20L2 colon): > 28 µM
TGI (SF-268 CNS): > 50 µM
TGI (EKVX NSCLC): > 50 µM
TGI (HCT-15 colon): > 50 µM
TGI (CAKI-1 renal): > 50 µM
TGI (MALME-3M melanoma): > 50 µM
TGI (SNB-19 CNS): > 50 µM
TGI (UO-31 renal): > 50 µM
TGI (SNB-75 CNS): > 50 µM
TGI (LOX IMVI melanoma): > 50 µM
TGI (SW-620 colon): > 31.6 µM
TGI (SK-MEL-28 melanoma): > 50 µM
TGI (NCI-H23 lung): > 50 µM

O=C(O)C(Cc1cccs1)NC(=O)C(F)(F)F (stereo unspecified)
TGI (HL-60(TB) leukemia): > 100 µM
TGI (HOP-18 NSCLC): > 100 µM
TGI (IGROV1 ovarian): > 100 µM
TGI (SN12C renal): > 100 µM
TGI (SF-295 CNS): > 100 µM
TGI (NCI-H226 lung): > 100 µM
TGI (SK-MEL-5 melanoma): > 100 µM
TGI (SF-539 CNS): > 100 µM
TGI (RXF 393 renal): > 100 µM
TGI (SK-MEL-2 melanoma): > 100 µM
TGI (KM12 colon): > 100 µM
TGI (NCI-H460 lung): > 100 µM
TGI (CCRF-CEM leukemia): > 100 µM
TGI (UACC-257 melanoma): > 100 µM
TGI (P388/ADR leukemia): > 100 µM
TGI (SN12K1 renal): > 100 µM
TGI (K-562 leukemia): > 100 µM
TGI (UACC-62 melanoma): > 100 µM
TGI (HOP-62 NSCLC): > 100 µM
TGI (OVCAR-5 ovarian): > 100 µM
TGI (OVCAR-8 ovarian): > 100 µM
TGI (NCI-H522 lung): > 100 µM
TGI (OVCAR-4 ovarian): > 100 µM
TGI (HOP-92 NSCLC): > 100 µM
TGI (NCI/ADR-RES ovarian): > 100 µM
TGI (A549 NSCLC): > 100 µM
TGI (SK-OV-3 ovarian): > 100 µM
TGI (A498 renal): > 100 µM
TGI (P388 leukemia): > 100 µM
TGI (HCC-2998 colon): > 100 µM
TGI (HCT-116 colon): > 100 µM
TGI (DMS 273 small cell lung): > 100 µM
TGI (M19-MEL melanoma): > 100 µM
TGI (MOLT-4 leukemia): > 100 µM
TGI (DMS 114 small cell lung): > 100 µM
TGI (OVCAR-3 ovarian): > 100 µM
TGI (HT29 colon): > 100 µM
TGI (U251 CNS): > 100 µM
TGI (MCF7 breast): > 100 µM
TGI (RPMI-8226 leukemia): > 100 µM
TGI (COLO 205 colon): > 100 µM
TGI (DLD-1 colon): > 100 µM
TGI (KM20L2 colon): > 100 µM
TGI (SF-268 CNS): > 100 µM
TGI (EKVX NSCLC): > 100 µM
TGI (HCT-15 colon): > 100 µM
TGI (CAKI-1 renal): > 100 µM
TGI (MALME-3M melanoma): > 100 µM
TGI (SNB-19 CNS): > 100 µM
TGI (UO-31 renal): > 100 µM
TGI (SNB-75 CNS): > 100 µM
TGI (LOX IMVI melanoma): > 100 µM
TGI (SW-620 colon): > 100 µM
TGI (SK-MEL-28 melanoma): > 100 µM
TGI (NCI-H23 lung): > 100 µM
